Source: US9751824B2, “Acetyl salicyclic acid dimers, synthesis thereof, and uses thereof to prevent and treat complement-mediated disorders” (Aurin Biotech Inc., priority 2013, dated 2017)

Test system: classical complement pathway
Assay: CH50 assay, hemolysis of sensitized human red blood cells by zymosan-activated human serum
Assay type: cell-based
Details: added at 1 mM; serum species not singled out (FIG. 3 covers human, rat, cat, dog)
Procedure: To evaluate the strength of blockade of the classical complement pathway achieved by DAS-1 and DAS-2, a standard CH50 assay was employed. Normal human red blood cells were sensitized by incubation overnight with rabbit anti red blood cell antibody. Then dilutions of serum activated by zymosan, with and without various amounts of DAS-1, DAS-2, or the precursor acetylsalicylic acid, were incubated with the sensitized red blood cells for 1 hour at 37° C. The incubates were centrifuged at 5,000 rpm for 10 min. The hemoglobin released into the serum from red blood cells that had been destroyed by complement attack, was determined by reading the optical density (OD) at 405 nm. As a positive control, red blood cells were 100% lysed with water, and as a negative control, no serum was added to the incubate.
DAS-1 and DAS-2 protected human red blood cells from complement attack by zymogen activated serum of human, rat, cat, and dog. FIG. 3A illustrates the result for DAS-1.

SMILES: CC(=O)Oc1ccccc1C(=O)O [acetylsalicylic acid, reference compound]
- protective effect against hemolysis (FIG. 3C): no protective effect
